Assay results as given in US12297192B2, “Crystal form of pyrimidine sulfonamide compound and preparation method therefor” (WUXI BIOCITY BIOPHARMACEUTICS CO., LTD., priority 2019, dated 2025).
Several values for one entry are separate records, joined by “and”; a condition that tells them apart may be missing. Equal entries are not always repeated.

Key:
[1] = target: T1, CYP2C19 (Homo sapiens, UniProt P33261); assay: Human liver microsomal cytochrome P450 isozyme inhibition; type: in vitro ADME; conditions: human liver microsomes
T1 construct: Mixed human liver microsomes (HLM) were purchased from Corning Inc; tissue Corning Inc; host or cells: pooled human liver microsomes
T1 sequence (P33261 whole entry): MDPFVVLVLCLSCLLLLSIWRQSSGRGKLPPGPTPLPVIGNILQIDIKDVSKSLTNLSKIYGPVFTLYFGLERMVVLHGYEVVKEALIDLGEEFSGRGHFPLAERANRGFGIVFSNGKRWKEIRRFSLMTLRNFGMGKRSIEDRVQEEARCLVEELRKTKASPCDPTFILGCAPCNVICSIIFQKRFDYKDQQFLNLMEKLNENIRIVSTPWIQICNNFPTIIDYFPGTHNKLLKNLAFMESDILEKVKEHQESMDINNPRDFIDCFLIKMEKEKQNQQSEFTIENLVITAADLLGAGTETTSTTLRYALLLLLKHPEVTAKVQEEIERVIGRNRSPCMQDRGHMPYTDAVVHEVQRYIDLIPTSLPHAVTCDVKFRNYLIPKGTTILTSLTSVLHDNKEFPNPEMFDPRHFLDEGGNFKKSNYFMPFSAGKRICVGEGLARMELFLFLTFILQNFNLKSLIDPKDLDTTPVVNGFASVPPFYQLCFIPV
Description: (§1) The aim of the project was to evaluate the inhibitory activity of the test article against human liver microsomal cytochrome P450 isozymes (CYP1A2, CYP2C9, CYP2C19, CYP2D6 and CYP3A4) using a 5-in-1 probe substrate for CYP isozymes.
(§2) Mixed human liver microsomes (HLM) were purchased from Corning Inc. (Steuben, New York, USA) and stored at less than −80° C. prior to use. A diluted series of concentrations of the stock solution of the test article was added to an incubation system containing human liver microsomes, probe substrate and cofactors of the circulatory system. The control without the test article but with solvent was used as the enzyme activity control (100%). The concentration of metabolites generated by the probe substrate in the samples was determined by liquid chromatography-tandem mass spectrometry (LC-MS/MS). A non-linear regression analysis of the mean percentage activity of the test article against concentration was performed using SigmaPlot (V.11). The IC50 values were calculated using a three- or four-parameter inverse hyperbolic logarithmic function.

[2] = target: T2, CYP1A2 (Homo sapiens, UniProt P05177); assay: as above; type: in vitro ADME; conditions: human liver microsomes
T2 construct: Mixed human liver microsomes (HLM) were purchased from Corning Inc; tissue Corning Inc; host or cells: pooled human liver microsomes
T2 sequence (P05177 1-516): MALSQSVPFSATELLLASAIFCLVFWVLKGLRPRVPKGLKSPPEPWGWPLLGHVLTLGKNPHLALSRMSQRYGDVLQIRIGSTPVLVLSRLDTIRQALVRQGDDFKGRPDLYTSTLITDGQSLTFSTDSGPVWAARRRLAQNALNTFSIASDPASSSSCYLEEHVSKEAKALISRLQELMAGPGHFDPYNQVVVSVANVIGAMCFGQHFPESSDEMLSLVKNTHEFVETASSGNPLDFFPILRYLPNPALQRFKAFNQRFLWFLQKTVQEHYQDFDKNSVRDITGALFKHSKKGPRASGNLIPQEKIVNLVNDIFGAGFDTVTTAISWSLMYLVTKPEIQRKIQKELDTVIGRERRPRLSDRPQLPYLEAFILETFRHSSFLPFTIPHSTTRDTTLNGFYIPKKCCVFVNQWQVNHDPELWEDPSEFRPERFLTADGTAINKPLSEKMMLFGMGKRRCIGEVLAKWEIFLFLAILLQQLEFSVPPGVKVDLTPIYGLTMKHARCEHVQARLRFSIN
Description: as §1, §2

[3] = Hygroscopicity study of Crystal Form A; type: physicochemical; conditions: 25° C., 24 hours
Source text: Categorization in the hygroscopicity evaluation is as follows:
• 1) Two dry stoppered glass weighing bottles (50 mm external diameter, 30 mm high) were taken and kept in a desiccator with a saturated solution of ammonium chloride in the lower part. The weighing bottles were left open.

[4] = Pharmacokinetic evaluation in rats; type: in vivo, SD rats
Description: The animals used in this study were SD male rats. The LC/MS/MS method was applied to quantify the plasma drug concentrations in rats at different time points after administration of the test compound intravenously or orally by gavage in order to evaluate the pharmacokinetic characteristics of the test compound in rats.
Sprague Dawley (SD) rats (male, 200-300 g, 7-10 weeks old, Beijing Vital River or Shanghai SLAC).
A clear solution of the test compound was administered to SD rats by tail vein injection (overnight fasting) or oral gavage (overnight fasting). At 0 hour (before administration through tail vein injection) and 0.0833, 0.25, 0.5, 1, 2, 4, 6, 8 and 24 hours after administration through tail vein injection, 200 μL of blood was collected by jugular venipuncture into anticoagulation tubes supplemented with EDTA-K2 (Jiangsu Kangjian Medical Supplies Co., Ltd.). The mixture in the anticoagulation tube was vortexed thoroughly at 4° C. and then centrifuged at 13,000 rpm for 10 minutes to obtain the plasma. At 0 hours (before administration by oral gavage) and 0.5, 1, 2, 4, 6, 8 and 24 hours after administration by oral gavage, 200 μL of blood was collected by jugular venipuncture into anticoagulation tubes supplemented with EDTA-K2 (Jiangsu Kangjian Medical Supplies Co., Ltd.). The mixture in the anticoagulation tube was vortexed thoroughly and the plasma was then centrifuged at 13,000 rpm for 10 minutes to obtain the plasma. Blood concentrations were determined by LC/MS/MS and the relevant pharmacokinetic parameters were calculated using WinNonlin™ Version 6.3 (Pharsight, Mountain View, CA) pharmacokinetics software with a non-compartmental model linear-log trapezoidal method.

`CCCNS(=O)(=O)Nc1ncnc(OCCOc2ncc(Br)cn2)c1-c1ccc(Br)cc1` [Macitentan, reference compound] showed an IC50 [1] of 31.7 µM and an IC50 [2] of 37.4 µM.

For `COCCNS(=O)(=O)Nc1ncnc(OCCOc2ncc(Br)cn2)c1-c1ccc2c(c1)OCO2`, the Hygroscopicity categorization [3] was “non- or almost non-hygroscopic”, the “Moisture-absorption weight gain, Mean (%)” value ([3]; mean of two samples, desiccator with saturated ammonium chloride solution) was 0.075% and the “Weight gain percentage (%)” value ([3]; single sample, desiccator with saturated ammonium chloride solution) was 0.11% and 0.04%.

With `COCCNS(=O)(=O)Nc1ncnc(OCCOc2ncc(Br)cn2)c1-c1ccc2c(c1)OCO2` [Compound of formula (I)] the “Area under the drug concentration-time curve” value ([4]; intravenous injection 2 mg/kg) was 16.09 µM·h, the Plasma clearance ([4]; intravenous injection 2 mg/kg, 2 mg/kg) was 3.71 mL/min/kg and the “Area under the drug concentration-time curve” value ([4]; oral 10 mg/kg) was 60.22 µM·h. For the same molecule, the Peak concentration ([4]; oral 10 mg/kg) was 31.99 µM, the Peak time ([4]; oral 10 mg/kg) was 0.25 h and the Bioavailability ([4]; oral 10 mg/kg, 10 mg/kg) was 74.9%.
